# Source: patent US20200216417A1, “INHIBITORS OF FIBROBLAST ACTIVATION PROTEIN” (Praxis Biotech LLC, priority 2019, published 2020)
# What was measured:
# [1] = target: T1, recombinant human DPPIV (rhDPPIV) (Homo sapiens, UniProt P27487); assay: DPPIV enzymatic activity assay, H-Gly-Pro-pNA; assay type: biochemical
# T1 construct: purchased R&S system (so in the source)
# [2] = target: T2, recombinant human PREP (rhPREP) (Homo sapiens, UniProt P48147); assay: PREP enzymatic activity assay, Z-Gly-Pro-AMC; assay type: biochemical
# T2 sequence (P48147 1-710): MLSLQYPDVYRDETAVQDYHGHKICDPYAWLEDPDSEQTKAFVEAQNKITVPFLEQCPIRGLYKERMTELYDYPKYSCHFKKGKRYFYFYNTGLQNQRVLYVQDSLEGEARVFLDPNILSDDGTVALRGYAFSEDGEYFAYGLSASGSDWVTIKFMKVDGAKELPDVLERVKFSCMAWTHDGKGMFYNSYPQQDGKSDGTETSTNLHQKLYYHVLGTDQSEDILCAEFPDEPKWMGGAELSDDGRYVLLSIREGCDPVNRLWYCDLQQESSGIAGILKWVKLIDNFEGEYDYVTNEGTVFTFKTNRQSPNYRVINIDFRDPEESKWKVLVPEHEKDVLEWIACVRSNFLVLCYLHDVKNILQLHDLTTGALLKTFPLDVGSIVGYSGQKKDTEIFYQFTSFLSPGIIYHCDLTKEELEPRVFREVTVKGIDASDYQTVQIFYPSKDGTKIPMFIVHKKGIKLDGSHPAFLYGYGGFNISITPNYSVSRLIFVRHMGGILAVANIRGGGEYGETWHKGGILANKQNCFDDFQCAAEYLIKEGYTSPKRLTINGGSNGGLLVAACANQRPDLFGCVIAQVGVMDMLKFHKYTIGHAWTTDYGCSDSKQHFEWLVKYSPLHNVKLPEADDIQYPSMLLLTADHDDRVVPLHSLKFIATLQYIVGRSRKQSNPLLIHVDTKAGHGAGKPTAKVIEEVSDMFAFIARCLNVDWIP
# [3] = target: T3, recombinant human DPP9 (rhDPP9) (Homo sapiens, UniProt Q86TI2); assay: DPP9 enzymatic activity assay, 40 ng rhDPP9, HEPES buffer; assay type: biochemical; settings: Table 3A
# T3 construct: purchased R&S system / R&D systems (both sic) 5419-SE
# T3 sequence (Q86TI2 whole entry): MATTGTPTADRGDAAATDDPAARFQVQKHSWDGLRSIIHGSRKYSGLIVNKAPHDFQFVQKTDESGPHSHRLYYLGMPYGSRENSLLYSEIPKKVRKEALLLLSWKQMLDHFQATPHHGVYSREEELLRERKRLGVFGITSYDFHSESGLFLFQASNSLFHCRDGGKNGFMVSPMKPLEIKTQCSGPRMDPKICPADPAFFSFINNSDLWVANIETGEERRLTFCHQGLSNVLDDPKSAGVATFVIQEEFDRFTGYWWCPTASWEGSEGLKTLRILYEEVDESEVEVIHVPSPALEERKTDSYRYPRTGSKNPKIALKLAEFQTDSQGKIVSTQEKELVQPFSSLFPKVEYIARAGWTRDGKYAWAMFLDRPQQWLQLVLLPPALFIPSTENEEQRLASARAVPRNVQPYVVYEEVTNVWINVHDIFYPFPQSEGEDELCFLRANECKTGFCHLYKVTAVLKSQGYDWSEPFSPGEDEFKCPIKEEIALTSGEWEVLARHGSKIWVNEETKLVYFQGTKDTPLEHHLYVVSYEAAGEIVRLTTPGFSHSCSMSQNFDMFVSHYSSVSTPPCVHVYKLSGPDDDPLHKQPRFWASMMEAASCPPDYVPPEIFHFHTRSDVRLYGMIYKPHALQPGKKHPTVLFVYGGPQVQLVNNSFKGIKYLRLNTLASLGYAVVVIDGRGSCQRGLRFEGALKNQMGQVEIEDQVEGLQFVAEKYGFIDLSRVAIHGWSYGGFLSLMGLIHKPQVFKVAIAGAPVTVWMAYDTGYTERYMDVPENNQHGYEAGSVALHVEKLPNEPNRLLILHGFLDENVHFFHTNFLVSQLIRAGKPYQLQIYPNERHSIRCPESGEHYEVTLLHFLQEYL
# [4] = target: T4, FAPα (Mus musculus, UniProt P97321); assay: FAPα enzymatic activity in mouse plasma (PRXS-AMC); assay type: biochemical, C57BL/6 mouse; settings: PRXS-AMC substrate, read-out: mouse plasma FAPα (PRXS-AMC) (exo IC50)
# T4 construct: from tissue; host or cells: C57BL/6 mouse plasma (EDTA)
# T4 sequence (P97321 24-761 limits assumed): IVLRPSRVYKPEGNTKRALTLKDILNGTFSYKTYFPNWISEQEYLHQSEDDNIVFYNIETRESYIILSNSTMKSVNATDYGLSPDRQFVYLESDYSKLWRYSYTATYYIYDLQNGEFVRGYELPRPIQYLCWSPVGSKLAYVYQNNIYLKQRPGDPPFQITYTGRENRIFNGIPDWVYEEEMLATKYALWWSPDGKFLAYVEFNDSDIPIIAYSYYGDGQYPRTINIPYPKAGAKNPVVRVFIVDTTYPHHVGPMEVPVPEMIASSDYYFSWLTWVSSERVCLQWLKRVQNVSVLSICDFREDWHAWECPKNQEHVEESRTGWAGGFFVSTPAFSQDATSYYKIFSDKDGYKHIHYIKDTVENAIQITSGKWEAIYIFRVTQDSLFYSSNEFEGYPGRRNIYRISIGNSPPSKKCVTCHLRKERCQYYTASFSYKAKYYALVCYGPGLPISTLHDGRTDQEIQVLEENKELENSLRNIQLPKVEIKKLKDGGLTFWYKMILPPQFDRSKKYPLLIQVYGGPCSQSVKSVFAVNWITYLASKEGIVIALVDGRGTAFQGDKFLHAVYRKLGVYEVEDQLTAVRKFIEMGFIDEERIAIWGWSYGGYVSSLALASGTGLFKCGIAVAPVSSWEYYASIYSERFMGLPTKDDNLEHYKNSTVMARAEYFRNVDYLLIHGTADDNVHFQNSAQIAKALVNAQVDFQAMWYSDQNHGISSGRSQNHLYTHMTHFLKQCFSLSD
# Procedure: Approximately 500 μL of whole blood from one C57BL/6 mouse was harvested into BD Microtainer® tubes (K2) EDTA (#365974, Becton Dickinson and Co.) via terminal cardiac puncture. The blood sample was immediately centrifuged at approximately 9000 g at 4° C. for 5 minutes. Plasma was separated and stored at −80° C. in aliquots of 300 μL. To assay baseline FAPα enzymatic exopeptidase activity, 5 μL of thawed, plasma was diluted (1:5) with cFAP buffer (100 mM Tris-HCl, 400 mM NaCl, 50 mM salicylic acid, 1 mM EDTA, pH 7.5) and mixed with 35 μL of the same buffer before being pre-incubated with different concentrations of 10 μL of test compounds or DMSO vehicle for 15 minutes at 37° C. in 96-well black plates (Nunc, #237108). After pre-incubation, 50 μL of 200 μM PRXS-AMC were added to the mixture. The assay was performed for 1 hour at 37° C. protected from light. 7-Amino-4-Methylcoumarin (AMC) release was detected measuring fluorescence at an excitation wavelength of 380 nm and an emission wavelength of 460 nm using a Multifunction Microplate Reader (Synergy 4, Biotek). All measurements were carried out at least as a single point.
# [5] = target: T5, DPPIV (Mus musculus, UniProt P28843); assay: DPPIV enzymatic activity in mouse plasma (H-Gly-Pro-AMC); assay type: biochemical, C57BL/6 mouse; settings: H-Gly-Pro-AMC substrate
# T5 construct: from tissue; host or cells: C57BL/6 mouse plasma (EDTA)
# T5 sequence (P28843 37-760 limits assumed): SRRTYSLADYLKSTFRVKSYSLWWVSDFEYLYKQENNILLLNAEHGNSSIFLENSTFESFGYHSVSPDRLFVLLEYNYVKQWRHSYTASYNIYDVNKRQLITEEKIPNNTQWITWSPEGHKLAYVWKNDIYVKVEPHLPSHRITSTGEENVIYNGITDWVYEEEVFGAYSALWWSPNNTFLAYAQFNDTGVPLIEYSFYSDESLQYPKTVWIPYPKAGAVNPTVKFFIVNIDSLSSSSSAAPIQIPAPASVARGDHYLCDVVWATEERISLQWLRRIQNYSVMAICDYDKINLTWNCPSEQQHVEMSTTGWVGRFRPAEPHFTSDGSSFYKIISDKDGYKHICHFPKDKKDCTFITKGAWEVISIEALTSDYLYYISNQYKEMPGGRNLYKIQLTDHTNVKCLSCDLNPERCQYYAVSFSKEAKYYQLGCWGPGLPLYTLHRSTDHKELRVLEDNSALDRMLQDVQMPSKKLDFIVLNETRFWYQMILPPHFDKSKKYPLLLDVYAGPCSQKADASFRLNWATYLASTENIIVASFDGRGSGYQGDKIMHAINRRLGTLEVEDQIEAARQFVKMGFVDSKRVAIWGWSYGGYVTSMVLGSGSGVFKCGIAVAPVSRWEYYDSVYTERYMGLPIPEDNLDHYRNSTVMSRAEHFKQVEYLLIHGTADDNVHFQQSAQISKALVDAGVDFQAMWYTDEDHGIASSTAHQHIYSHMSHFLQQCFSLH
# Procedure: Approximately 500 μL of whole blood from one C57BL/6 mouse was harvested into BD Microtainer® tubes (K2) EDTA (#365974, Becton Dickinson and Co.) via terminal cardiac puncture. The blood sample was immediately centrifuged at approximately 9000 g at 4° C. for 5 minutes. Plasma was separated and stored at −80° C. in aliquots of 300 μL. To assay baseline DPPIV enzymatic exopeptidase activity, 5 μL of thawed, mouse plasma was diluted (1:5) in buffer (100 mM Tris-HCl, 400 mM NaCl, 50 mM salicylic acid, 1 mM EDTA, pH 7.5) and mixed with 35 μL of the same buffer before being pre-incubated with different concentrations of 10 μL of test compounds or DMSO vehicle for 15 minutes at 37° C. in 96-well black plates (Nunc, #237108). After pre-incubation, 50 μL of 200 μM dipeptide substrate H-Gly-Pro-AMC (Bachem, # L-1225) was added to the mixture. The assay was performed for 1 hour at 37° C. 7-Amino-4-Methylcoumarin (AMC) release was detected measuring fluorescence at an excitation wavelength of 360 nm and an emission wavelength of 460 nm using a Multifunction Microplate Reader (Synergy 4, Biotek). All measurements were carried out at least in duplicate.
# T1 sequence (P27487 whole entry): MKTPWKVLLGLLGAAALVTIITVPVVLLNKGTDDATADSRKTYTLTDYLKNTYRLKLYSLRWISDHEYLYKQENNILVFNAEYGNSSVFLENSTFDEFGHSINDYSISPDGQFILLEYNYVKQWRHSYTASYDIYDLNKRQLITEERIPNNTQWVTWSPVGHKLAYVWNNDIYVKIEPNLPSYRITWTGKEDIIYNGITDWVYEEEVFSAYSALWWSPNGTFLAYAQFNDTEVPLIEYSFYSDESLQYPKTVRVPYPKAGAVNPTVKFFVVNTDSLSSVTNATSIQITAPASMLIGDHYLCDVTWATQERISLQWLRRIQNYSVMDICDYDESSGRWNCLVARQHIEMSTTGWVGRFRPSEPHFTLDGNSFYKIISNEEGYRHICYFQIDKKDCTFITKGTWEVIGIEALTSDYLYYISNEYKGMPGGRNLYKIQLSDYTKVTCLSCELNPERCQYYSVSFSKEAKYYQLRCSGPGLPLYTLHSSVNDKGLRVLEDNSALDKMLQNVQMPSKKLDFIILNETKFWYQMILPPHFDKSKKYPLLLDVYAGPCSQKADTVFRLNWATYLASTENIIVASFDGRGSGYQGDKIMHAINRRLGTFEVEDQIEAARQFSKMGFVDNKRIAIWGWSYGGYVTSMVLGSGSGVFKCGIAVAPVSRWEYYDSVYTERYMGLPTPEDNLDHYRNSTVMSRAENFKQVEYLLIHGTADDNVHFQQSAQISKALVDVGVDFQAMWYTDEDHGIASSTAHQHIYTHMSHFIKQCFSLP
IC50 ([1]; Table 3A) [µM],IC50 ([1]; Table 3B) [µM],IC50 ([2]; Table 3A) [µM],IC50 ([2]; Table 3B) [µM],IC50 [3] [µM],IC50 [4] [µM],IC50 [5] [µM],Compound
1 to 10,1 to 10,> 10,> 10,1 to 10,< 1,< 1,"N#C[C@@H]1CC(F)(F)CN1C(=O)CNC(=O)c1ccncc1NC(=O)COc1ccc(Cl)c(F)c1 [Compound 5, (S)-3-(2-(4-chloro-3-fluorophenoxy)acetamido)-N-(2-(2-cyano-4,4-difluoropyrrolidin-1-yl)-2-oxoethyl)isonicotinamide]"
> 10,> 10,> 10,> 10,> 10,< 1,< 10,"N#C[C@@H]1CC(F)(F)CN1C(=O)CNC(=O)c1ccncc1NCc1ccc(F)cc1 [Compound 2, (S)—N-(2-(2-cyano-4,4-difluoropyrrolidin-1-yl)-2-oxoethyl)-3-((4-fluorobenzyl)amino)isonicotinamide]"
> 10,> 10,1 to 10,1 to 10,1 to 10,< 1,< 10,"N#C[C@@H]1CC(F)(F)CN1C(=O)CNC(=O)c1ccncc1Cc1ccccc1F [Compound 7, (S)—N-(2-(2-cyano-4,4-difluoropyrrolidin-1-yl)-2-oxoethyl)-3-(2-fluorobenzyl)isonicotinamide]"
> 10,> 10,> 10,> 10,1 to 10,< 1,< 10,"N#C[C@@H]1CC(F)(F)CN1C(=O)CNC(=O)c1ccncc1Cc1ccc(F)cc1 [Compound 8, (S)—N-(2-(2-cyano-4,4-difluoropyrrolidin-1-yl)-2-oxoethyl)-3-(4-fluorobenzyl)isonicotinamide]"

Compound,IC50 ([1]; Table 3A) [µM],IC50 ([1]; Table 3B) [µM],IC50 ([2]; Table 3A) [µM],IC50 ([2]; Table 3B) [µM],IC50 [3] [µM],IC50 [4] [µM],IC50 [5] [µM]
"COc1ccc(C(=O)Nc2cnccc2C(=O)NCC(=O)N2CC(F)(F)C[C@H]2C#N)cc1 [Compound 3, (S)—N-(2-(2-cyano-4,4-difluoropyrrolidin-1-yl)-2-oxoethyl)-3-(4-methoxybenzamido)isonicotinamide]",1 to 10,1 to 10,> 10,> 10,1 to 10,< 1,1 to 10
"N#C[C@@H]1CC(F)(F)CN1C(=O)CNC(=O)c1ccncc1/C=C/c1ccc(Cl)cc1 [Compound 9, (S,E)-3-(4-chlorostyryl)-N-(2-(2-cyano-4,4-difluoropyrrolidin-1-yl)-2-oxoethyl)isonicotinamide]",> 10,> 10,> 10,> 10,< 1,< 1,< 10
